Each structure is given as a SMILES string. pIC50: −log10 of the molar value.

Series [1] has as its system Hepatitis B virus. Description: Antiviral activity against HBV infected in immuno-competent mouse model assessed as log10 reduction serum HBsAg. Format: functional.
Series [2] relates to Hepatitis B virus. The series is described as follows: Antiviral activity against HBV genotype D in immuno-competent C57BL/6 mouse model of chronic HBV assessed as log10 reduction in HBsAg production at 10 mg/kg, po qd for 7 days measured 24 hrs post-last dose by EIA relative to control. Format: functional. The settings on record: time 8 day.
Series [3] can be described thus: AUC (0 to 24 hrs) in Sprague-Dawley rat at 10 mg/kg, po measured for 24 hrs by LC-MS/MS analysis. The class given is ADME, organism-based. Conditions: in vivo.
Series [4] is described as follows: Oral bioavailability in Sprague-Dawley rat at 10 mg/kg measured for 24 hrs by LC-MS/MS analysis. Conditions: in vivo. The class given is ADME, organism-based.
Series [5] is described as follows: Ratio of total drug concentration in liver to plasma in Sprague-Dawley rat at 10 mg/kg, po measured for 24 hrs by LC-MS/MS analysis. Format: ADME, organism-based. The settings on record: liver and plasma.
The test system of series [6] is Hepatitis B virus. The series is described as follows: Antiviral activity against HBV genotype D in immuno-competent C57BL/6 mouse model of chronic HBV assessed as log10 reduction in HBsAg production at 3 mg/kg, po qd for 7 days measured 24 hrs post-last dose by EIA (reference value: 0.67). Format: functional. The settings on record: time 8 day.
Series [7] deals with CYP2C19 (Homo sapiens, UniProt P33261). The series is described as follows: Inhibition of CYP2C19 in human liver microsomes using S-mephenytoin as substrate preincubated for 30 min followed by NADPH addition measured after 12 mins by LC-MS/MS analysis. The settings on record: human, liver microsomes, probe S-mephenytoin. Format: ADME, Microsome. (In general: Liver microsomes are a subcellular fraction often used to study metabolism.)
Sequence of CYP2C19 (P33261 whole entry): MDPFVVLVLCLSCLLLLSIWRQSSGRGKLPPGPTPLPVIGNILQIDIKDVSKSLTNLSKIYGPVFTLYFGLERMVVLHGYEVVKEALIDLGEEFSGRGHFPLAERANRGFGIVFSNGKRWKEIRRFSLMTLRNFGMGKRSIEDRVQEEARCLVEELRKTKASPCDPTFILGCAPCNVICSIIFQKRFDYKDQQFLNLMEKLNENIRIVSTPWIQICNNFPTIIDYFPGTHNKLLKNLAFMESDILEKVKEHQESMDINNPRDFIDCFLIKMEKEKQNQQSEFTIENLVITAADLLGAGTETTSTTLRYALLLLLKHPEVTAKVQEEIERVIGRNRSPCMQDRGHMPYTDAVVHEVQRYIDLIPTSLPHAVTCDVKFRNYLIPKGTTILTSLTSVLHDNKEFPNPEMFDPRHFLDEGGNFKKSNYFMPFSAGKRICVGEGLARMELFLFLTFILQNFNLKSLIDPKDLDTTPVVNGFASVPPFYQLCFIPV

For series [8], the target named is T1, CYP3A4 (Homo sapiens, UniProt P08684). The series is described as follows: Inhibition of CYP3A4 in human liver microsomes using midazolam as substrate preincubated for 30 min followed by NADPH addition measured after 12 mins by LC-MS/MS analysis. Format: ADME, Microsome. The settings on record: human, liver microsomes, probe midazolam.
T1 sequence (P08684 whole entry): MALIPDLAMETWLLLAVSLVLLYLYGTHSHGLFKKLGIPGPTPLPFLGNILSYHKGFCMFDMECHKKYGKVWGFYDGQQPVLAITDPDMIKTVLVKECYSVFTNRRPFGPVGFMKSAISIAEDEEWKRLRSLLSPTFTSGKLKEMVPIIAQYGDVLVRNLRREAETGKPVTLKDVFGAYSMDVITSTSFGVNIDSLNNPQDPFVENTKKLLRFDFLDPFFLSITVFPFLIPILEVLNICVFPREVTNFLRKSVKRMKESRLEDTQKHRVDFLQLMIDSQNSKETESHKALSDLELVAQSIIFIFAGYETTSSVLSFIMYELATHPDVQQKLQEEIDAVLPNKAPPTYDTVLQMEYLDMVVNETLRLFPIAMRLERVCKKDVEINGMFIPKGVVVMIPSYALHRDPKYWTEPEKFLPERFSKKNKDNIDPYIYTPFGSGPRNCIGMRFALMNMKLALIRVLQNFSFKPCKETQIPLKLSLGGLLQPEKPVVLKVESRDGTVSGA
For series [9], the target named is T1, CYP3A4. The series is described as follows: Inhibition of CYP3A4 in human liver microsomes using testosterone as substrate preincubated for 30 min followed by NADPH addition measured after 12 mins by LC-MS/MS analysis. The class given is ADME, Microsome. Conditions: human, liver microsomes, probe testosterone.
Series [10] in a line: Drug concentration in Sprague-Dawley rat liver at 10 mg/kg, po measured for 24 hrs by LC-MS/MS analysis. The class given is ADME, organism-based. Conditions: read-out: Ct.
Series [11] can be described thus: Drug concentration in Sprague-Dawley rat heart at 10 mg/kg, po measured for 24 hrs by LC-MS/MS analysis. Format: ADME, organism-based. The settings on record: read-out: Ct.
A short description of series [12]: Ratio of drug concentration in liver to plasma of Sprague-Dawley rat at 10 mg/kg, po measured for 24 hrs by LC-MS/MS analysis. The class given is ADME, organism-based. The settings on record: liver and plasma.
Series [13] can be described thus: Ratio of drug concentration in heart to plasma of Sprague-Dawley rat at 10 mg/kg, po measured for 24 hrs by LC-MS/MS analysis. The class given is ADME, organism-based. Conditions: heart and plasma.
The nature of series [14]: Total AUC (0 to 24 hrs) in Beagle dog at 5 mg/kg, po qd measured after 91 days. Format: ADME, organism-based, Canis lupus familiaris. Conditions: in vivo, time 91 day.
Series [15] in a line: Free AUC (0 to 24 hrs) in Beagle dog at 5 mg/kg, po qd measured after 91 days. The settings on record: in vivo, 2184 h, time 91 day. The class given is ADME, organism-based, Canis lupus familiaris.
A short description of series [16]: Total Cmax in Beagle dog at 15 mg/kg, po qd measured after 91 days. Format: ADME, organism-based, Canis lupus familiaris. The settings on record: in vivo, time 91 day.
A short description of series [17]: Total AUC (0 to 24 hrs) in Beagle dog at 15 mg/kg, po qd measured after 91 days. The settings on record: in vivo, time 91 day. Format: ADME, organism-based, Canis lupus familiaris.
Series [18] can be described thus: Total Cmax in Beagle dog at 45 mg/kg, po qd measured after 91 days. Format: ADME, organism-based, Canis lupus familiaris. The settings on record: in vivo, time 91 day.
The nature of series [19]: Free Cmax in Beagle dog at 45 mg/kg, po qd measured after 91 days. The class given is ADME, organism-based, Canis lupus familiaris. The settings on record: in vivo, 2184 h, time 91 day.
A short description of series [20]: Free AUC (0 to 24 hrs) in Beagle dog at 45 mg/kg, po qd measured after 91 days. Conditions: in vivo, 2184 h, time 91 day. The class given is ADME, organism-based, Canis lupus familiaris.
The nature of series [21]: Total Cmax in Beagle dog at 60 mg/kg, po qd measured after 91 days. Conditions: in vivo, time 91 day. Format: ADME, organism-based, Canis lupus familiaris.
Series [22] in a line: Free Cmax in Beagle dog at 60 mg/kg, po qd measured after 91 days. Format: ADME, organism-based, Canis lupus familiaris. Conditions: in vivo, 2184 h, time 91 day.
Series [23] is described as follows: Free AUC (0 to 24 hrs) in Beagle dog at 60 mg/kg, po qd measured after 91 days. Conditions: in vivo, 2184 h, time 91 day. Format: ADME, organism-based, Canis lupus familiaris.
The nature of series [24]: Toxicity in Beagle dog assessed as splayed limbs at 60 mg/kg, po qd measured after 34 days. The settings on record: in vivo, 816 h, time 34 day. Format: organism-based, Canis lupus familiaris.
Series [25] in a line: Toxicity in Beagle dog assessed as animal death at 60 mg/kg, po qd measured after 45 days. The settings on record: in vivo, 1080 h, time 45 day. The class given is organism-based, Canis lupus familiaris.
The target of series [26] is Cytochrome P450 2D6 (Homo sapiens, UniProt P10635). Description: Inhibition of CYP2D6 in human liver microsomes using dextromethorphan as substrate preincubated for 30 min followed by NADPH addition measured after 12 mins by LC-MS/MS analysis. Format: ADME, Microsome.
Sequence of Cytochrome P450 2D6 (P10635 whole entry): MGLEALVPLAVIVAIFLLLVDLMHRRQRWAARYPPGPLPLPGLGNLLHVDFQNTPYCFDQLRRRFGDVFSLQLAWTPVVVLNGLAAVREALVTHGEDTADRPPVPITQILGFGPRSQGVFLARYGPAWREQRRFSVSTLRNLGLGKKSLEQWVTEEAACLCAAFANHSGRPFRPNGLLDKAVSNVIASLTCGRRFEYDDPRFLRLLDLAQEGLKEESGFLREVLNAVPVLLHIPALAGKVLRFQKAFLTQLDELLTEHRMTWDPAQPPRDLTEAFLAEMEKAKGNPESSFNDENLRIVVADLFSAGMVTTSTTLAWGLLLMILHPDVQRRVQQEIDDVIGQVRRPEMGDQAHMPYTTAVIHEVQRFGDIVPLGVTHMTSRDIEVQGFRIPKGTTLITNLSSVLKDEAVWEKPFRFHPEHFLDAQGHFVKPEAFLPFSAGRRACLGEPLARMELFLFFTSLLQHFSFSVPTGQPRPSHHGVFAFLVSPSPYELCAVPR
The subject of series [27] is Hepatitis B virus. Description: Antiviral activity against HBV genotype D in immuno-competent C57BL/6 mouse model of chronic HBV assessed as log10 reduction in serum HBsAg production at 0.3 mg/kg, po qd for 14 days measured 24 hrs post-last dose by EIA relative to control. The settings on record: time 15 day. Format: functional.
The nature of series [28]: Total Cmax in Beagle dog at 15 mg/kg, po qd measured after 60 days. The settings on record: in vivo, time 60 day. Format: ADME, organism-based, Canis lupus familiaris.
The nature of series [29]: Free Cmax in Beagle dog at 15 mg/kg, po qd measured after 60 days. Format: ADME, organism-based, Canis lupus familiaris. Conditions: in vivo, 1440 h, time 60 day.
The nature of series [30]: Total AUC (0 to 24 hrs) in Beagle dog at 15 mg/kg, po qd measured after 60 days. Format: ADME, organism-based, Canis lupus familiaris. Conditions: in vivo, time 60 day.
Series [31] is described as follows: Free AUC (0 to 24 hrs) in Beagle dog at 15 mg/kg, po qd measured after 60 days. The class given is ADME, organism-based, Canis lupus familiaris. Conditions: in vivo, 1440 h, time 60 day.
Series [32] is described as follows: Total Cmax in Beagle dog at 45 mg/kg, po qd measured after 60 days. The settings on record: in vivo, time 60 day. The class given is ADME, organism-based, Canis lupus familiaris.
A short description of series [33]: Free Cmax in Beagle dog at 45 mg/kg, po qd measured after 60 days. Format: ADME, organism-based, Canis lupus familiaris. Conditions: in vivo, 1440 h, time 60 day.
Series [34] is described as follows: Total AUC (0 to 24 hrs) in Beagle dog at 45 mg/kg, po qd measured after 60 days. The class given is ADME, organism-based, Canis lupus familiaris. Conditions: in vivo, time 60 day.
Series [35] is described as follows: Free AUC (0 to 24 hrs) in Beagle dog at 45 mg/kg, po qd measured after 60 days. Format: ADME, organism-based, Canis lupus familiaris. Conditions: in vivo, 1440 h, time 60 day.
Series [36] is described as follows: Toxicity in Beagle dog assessed as uncoordinated movements at 15 to 45 mg/kg, po qd measured after 60 days. The class given is organism-based, Canis lupus familiaris. The settings on record: in vivo, 1440 h, dose 15-45 mg/kg, time 60 day.
The nature of series [37]: Toxicity in Beagle dog assessed as splayed limbs at 15 to 45 mg/kg, po qd measured after 60 days. Conditions: in vivo, 1440 h, dose 15-45 mg/kg, time 60 day. Format: organism-based, Canis lupus familiaris.
Series [38] in a line: Toxicity in male Beagle dog assessed as fold increase in alanine aminotransferase level at 45 mg/kg, po qd measured for 60 days. The class given is organism-based, Canis lupus familiaris. Conditions: in vivo, 1440 h, time 60 day.
A short description of series [39]: Toxicity in female Beagle dog assessed as fold decrease in cholesterol level at 15 to 45 mg/kg, po qd measured for 60 days. The class given is organism-based, Canis lupus familiaris. The arrangement: scale not given: the % may be the effect or the level left. The settings on record: in vivo, 1440 h, dose 15-45 mg/kg, time 60 day.
Series [40] is described as follows: Ratio of drug concentration in liver to plasma of Sprague-Dawley rat at 5 mg/kg, po measured for 24 hrs by LC-MS/MS analysis. Format: ADME, organism-based. The settings on record: liver and plasma.

For `COCCCOc1cc2c(nc1OC)-c1cc(=O)c(C(=O)O)cn1[C@H](C(C)C)C2`, the results for the “log(activity)” value in series [1], in series [2] and in series [6] were “<=0.94”, 0.98 and 0.68, respectively. Further, the AUC(0-t) at 24 h in series [3] stood at 13900 ng·h/mL. The compound also showed a bioavailability in [4] of 80%. The Kp at 24 h stood at 3 in series [5], 3.3 in series [12] and 1.9 in [13]. Further, the IC50 at 12 min in series [7], in series [8] and in series [9] was over 25 µM throughout. For the same compound, the results for the concentration at 24 h in [10] and in [11] were 93 ng/g and 53 ng/g, respectively. Also, the AUC at 2184 h came out at 10500 ng·h/mL in [14] and 30600 ng·h/mL in [17]. Further, the fAUC in [15] stood at 3900 ng·h/mL; in series [20] it was 35300 ng·h/mL; in series [23] it was 47500 ng·h/mL. The figures for the peak concentration (Cmax) in series [16], in [18] and in series [21] were 11500 ng/mL, 27800 ng/mL and 18700 ng/mL, respectively. Moreover, the fCmax in series [19] is 10300 ng/mL; in series [22], 6940 ng/mL. Also, the Activity entry in series [24] and in [25] was “Toxic” each time.

With `COc1cc(OC(F)F)c2nc3c(n2c1)C[C@@H](C(C)(C)C)c1cc(C(=O)O)c(=O)[nH]c1-3`, the entries for the “log(activity)” value in series [6] and in series [27] were 0.8 and 0.13, respectively. Further, in [26], the pIC50 was under 4.60. Besides, the results for the Cmax in [28] and in series [32] were 13900 ng/mL and 17800 ng/mL, respectively. Further, the figures for the fCmax in [29] and in series [33] were 653 ng/mL and 834 ng/mL, respectively. The exposure (AUC) at 1440 h in [30] came out at 3900 ng·h/mL; in [34] it was 65900 ng·h/mL. The fAUC in series [31] worked out at 1830 ng·h/mL; in [35] it was 3100 ng·h/mL. The Activity entry is recorded as “Non-Toxic” in series [36], “Non-Toxic” in [37] and under 30% in [39]. In addition, the “fold change (FC)” value in series [38] is on record as under 2.

`CC(C)(C)[C@@H]1Cc2c(nc3c(C(F)(F)F)cc(C4CC4)cn23)-c2[nH]c(=O)c(C(=O)O)cc21`: the negative-log IC50 (pIC50) in [26] is under 4.60. The “log(activity)” value in series [27] is 0.35. Besides, in series [40], the partition ratio (Kp) at 24 h turned out to be 920.

In general, AUC(0-t) refers to exposure summed from dosing to a finite time, without extrapolation to infinity. The term bioavailability denotes dose-corrected exposure relative to a reference, in per cent. The Kp is tissue or fluid exposure divided by exposure in the circulation. The IC50 is the concentration at which inhibition is half-maximal. Usually AUC stands for the area under the concentration-time curve, a measure of exposure. A word on the Cmax: it is the highest concentration seen after dosing. The pIC50 is the negative decadic logarithm of the IC50, by convention in mol/L.

(Values after ChEMBL document CHEMBL6127124, “Structure-Activity Relationships and Discovery of (S)-5-(tert-Butyl)-11-(difluoromethoxy)-9-methoxy-2-oxo-1,2,5,6-tetrahydropyrido[2',1':2,3]imidazo[4,5-h]quinoline-3-carboxylic Acid (AB-161), a Novel Orally Available and Liver-Centric HBV RNA Destabilizer” (J Med Chem, 2024).)
